Results: the OligoGym collection
Oligonucleotides are given in HELM: sugar(base)linkage, 5' to 3'; d 2'-deoxyribose, r ribose, m 2'-O-methylribose, p phosphate. ss, as = sense and antisense strand

target: TMEM63B; test: reporter assay of Huesken 2005; conditions: siRNA
Note: test concentration or dose not given here.

Going from “RNA1{r(G)p.r(U)p.r(C)p.r(C)p.r(U)p.r(U)p.r(U)p.r(C)p.r(A)p.r(G)p.r(C)p.r(G)p.r(G)p.r(C)p.r(A)p.r(C)p.r(A)p.r(U)p.r(C)p.d(T)p.d(T)}|RNA2{r(G)p.r(A)p.r(U)p.r(G)p.r(U)p.r(G)p.r(C)p.r(C)p.r(G)p.r(C)p.r(U)p.r(G)p.r(A)p.r(A)p.r(A)p.r(G)p.r(G)p.r(A)p.r(C)p.d(A)p.d(G)}$$$RNA1{StrandType:ss}|RNA2{StrandType:as}$” to “RNA1{r(A)p.r(G)p.r(G)p.r(A)p.r(G)p.r(G)p.r(A)p.r(U)p.r(G)p.r(A)p.r(U)p.r(C)p.r(U)p.r(G)p.r(G)p.r(U)p.r(G)p.r(A)p.r(A)p.d(T)p.d(T)}|RNA2{r(U)p.r(U)p.r(C)p.r(A)p.r(C)p.r(C)p.r(A)p.r(G)p.r(A)p.r(U)p.r(C)p.r(A)p.r(U)p.r(C)p.r(C)p.r(U)p.r(C)p.r(C)p.r(U)p.d(T)p.d(G)}$$$RNA1{StrandType:ss}|RNA2{StrandType:as}$”, the normalised inhibition (eCFP-eYFP dual reporter) rises from 65.1% to 77.4%.

First: RNA1{r(G)p.r(A)p.r(C)p.r(U)p.r(U)p.r(C)p.r(A)p.r(A)p.r(C)p.r(G)p.r(U)p.r(G)p.r(U)p.r(G)p.r(U)p.r(A)p.r(A)p.r(A)p.r(U)p.d(T)p.d(T)}|RNA2{r(A)p.r(U)p.r(U)p.r(U)p.r(A)p.r(C)p.r(A)p.r(C)p.r(A)p.r(C)p.r(G)p.r(U)p.r(U)p.r(G)p.r(A)p.r(A)p.r(G)p.r(U)p.r(C)p.d(C)p.d(T)}$$$RNA1{StrandType:ss}|RNA2{StrandType:as}$
Second: RNA1{r(A)p.r(C)p.r(G)p.r(G)p.r(A)p.r(C)p.r(A)p.r(C)p.r(A)p.r(G)p.r(A)p.r(C)p.r(U)p.r(U)p.r(C)p.r(C)p.r(A)p.r(G)p.r(U)p.d(T)p.d(T)}|RNA2{r(A)p.r(C)p.r(U)p.r(G)p.r(G)p.r(A)p.r(A)p.r(G)p.r(U)p.r(C)p.r(U)p.r(G)p.r(U)p.r(G)p.r(U)p.r(C)p.r(C)p.r(G)p.r(U)p.d(G)p.d(A)}$$$RNA1{StrandType:ss}|RNA2{StrandType:as}$
The normalised inhibition (eCFP-eYFP dual reporter) of the first is higher: 102% for the first, 85.7% for the second.

Compared with “RNA1{r(G)p.r(A)p.r(G)p.r(G)p.r(C)p.r(G)p.r(C)p.r(A)p.r(A)p.r(C)p.r(G)p.r(U)p.r(G)p.r(A)p.r(A)p.r(G)p.r(C)p.r(G)p.r(G)p.d(T)p.d(T)}|RNA2{r(C)p.r(C)p.r(G)p.r(C)p.r(U)p.r(U)p.r(C)p.r(A)p.r(C)p.r(G)p.r(U)p.r(U)p.r(G)p.r(C)p.r(G)p.r(C)p.r(C)p.r(U)p.r(C)p.d(T)p.d(C)}$$$RNA1{StrandType:ss}|RNA2{StrandType:as}$”, “RNA1{r(G)p.r(U)p.r(G)p.r(G)p.r(U)p.r(U)p.r(G)p.r(U)p.r(G)p.r(G)p.r(G)p.r(C)p.r(G)p.r(U)p.r(C)p.r(C)p.r(U)p.r(C)p.r(U)p.d(T)p.d(T)}|RNA2{r(A)p.r(G)p.r(A)p.r(G)p.r(G)p.r(A)p.r(C)p.r(G)p.r(C)p.r(C)p.r(C)p.r(A)p.r(C)p.r(A)p.r(A)p.r(C)p.r(C)p.r(A)p.r(C)p.d(C)p.d(A)}$$$RNA1{StrandType:ss}|RNA2{StrandType:as}$” is lower in normalised inhibition (eCFP-eYFP dual reporter): 59.5% for the first, 53.5% for the second.

Going from “RNA1{r(C)p.r(G)p.r(A)p.r(U)p.r(G)p.r(C)p.r(A)p.r(G)p.r(A)p.r(G)p.r(A)p.r(G)p.r(G)p.r(A)p.r(A)p.r(G)p.r(A)p.r(A)p.r(G)p.d(T)p.d(T)}|RNA2{r(C)p.r(U)p.r(U)p.r(C)p.r(U)p.r(U)p.r(C)p.r(C)p.r(U)p.r(C)p.r(U)p.r(C)p.r(U)p.r(G)p.r(C)p.r(A)p.r(U)p.r(C)p.r(G)p.d(A)p.d(G)}$$$RNA1{StrandType:ss}|RNA2{StrandType:as}$” to “RNA1{r(A)p.r(G)p.r(A)p.r(G)p.r(G)p.r(C)p.r(G)p.r(C)p.r(A)p.r(A)p.r(C)p.r(G)p.r(U)p.r(G)p.r(A)p.r(A)p.r(G)p.r(C)p.r(G)p.d(T)p.d(T)}|RNA2{r(C)p.r(G)p.r(C)p.r(U)p.r(U)p.r(C)p.r(A)p.r(C)p.r(G)p.r(U)p.r(U)p.r(G)p.r(C)p.r(G)p.r(C)p.r(C)p.r(U)p.r(C)p.r(U)p.d(C)p.d(G)}$$$RNA1{StrandType:ss}|RNA2{StrandType:as}$”, the normalised inhibition (eCFP-eYFP dual reporter) falls from 56.4% to 35.7%.

Compared with “RNA1{r(C)p.r(U)p.r(U)p.r(U)p.r(C)p.r(C)p.r(U)p.r(C)p.r(A)p.r(U)p.r(C)p.r(U)p.r(U)p.r(C)p.r(A)p.r(U)p.r(G)p.r(G)p.r(U)p.d(T)p.d(T)}|RNA2{r(A)p.r(C)p.r(C)p.r(A)p.r(U)p.r(G)p.r(A)p.r(A)p.r(G)p.r(A)p.r(U)p.r(G)p.r(A)p.r(G)p.r(G)p.r(A)p.r(A)p.r(A)p.r(G)p.d(T)p.d(G)}$$$RNA1{StrandType:ss}|RNA2{StrandType:as}$”, “RNA1{r(G)p.r(G)p.r(C)p.r(C)p.r(A)p.r(A)p.r(G)p.r(C)p.r(U)p.r(G)p.r(G)p.r(A)p.r(C)p.r(A)p.r(A)p.r(G)p.r(A)p.r(A)p.r(G)p.d(T)p.d(T)}|RNA2{r(C)p.r(U)p.r(U)p.r(C)p.r(U)p.r(U)p.r(G)p.r(U)p.r(C)p.r(C)p.r(A)p.r(G)p.r(C)p.r(U)p.r(U)p.r(G)p.r(G)p.r(C)p.r(C)p.d(G)p.d(G)}$$$RNA1{StrandType:ss}|RNA2{StrandType:as}$” is lower in normalised inhibition (eCFP-eYFP dual reporter): 72.7% for the first, 65% for the second.

“RNA1{r(C)p.r(A)p.r(C)p.r(C)p.r(A)p.r(C)p.r(U)p.r(C)p.r(C)p.r(A)p.r(G)p.r(C)p.r(C)p.r(A)p.r(U)p.r(C)p.r(A)p.r(U)p.r(C)p.d(T)p.d(T)}|RNA2{r(G)p.r(A)p.r(U)p.r(G)p.r(A)p.r(U)p.r(G)p.r(G)p.r(C)p.r(U)p.r(G)p.r(G)p.r(A)p.r(G)p.r(U)p.r(G)p.r(G)p.r(U)p.r(G)p.d(A)p.d(G)}$$$RNA1{StrandType:ss}|RNA2{StrandType:as}$” and “RNA1{r(A)p.r(A)p.r(G)p.r(G)p.r(A)p.r(G)p.r(A)p.r(A)p.r(C)p.r(G)p.r(U)p.r(G)p.r(C)p.r(C)p.r(U)p.r(A)p.r(C)p.r(C)p.r(A)p.d(T)p.d(T)}|RNA2{r(U)p.r(G)p.r(G)p.r(U)p.r(A)p.r(G)p.r(G)p.r(C)p.r(A)p.r(C)p.r(G)p.r(U)p.r(U)p.r(C)p.r(U)p.r(C)p.r(C)p.r(U)p.r(U)p.d(G)p.d(C)}$$$RNA1{StrandType:ss}|RNA2{StrandType:as}$” are the same in normalised inhibition (eCFP-eYFP dual reporter): 70.2% for the first, 70.2% for the second.

First: RNA1{r(A)p.r(C)p.r(C)p.r(C)p.r(U)p.r(G)p.r(C)p.r(U)p.r(G)p.r(C)p.r(U)p.r(G)p.r(U)p.r(G)p.r(G)p.r(U)p.r(G)p.r(C)p.r(U)p.d(T)p.d(T)}|RNA2{r(A)p.r(G)p.r(C)p.r(A)p.r(C)p.r(C)p.r(A)p.r(C)p.r(A)p.r(G)p.r(C)p.r(A)p.r(G)p.r(C)p.r(A)p.r(G)p.r(G)p.r(G)p.r(U)p.d(G)p.d(G)}$$$RNA1{StrandType:ss}|RNA2{StrandType:as}$
Second: RNA1{r(A)p.r(A)p.r(C)p.r(C)p.r(A)p.r(C)p.r(C)p.r(A)p.r(U)p.r(U)p.r(G)p.r(C)p.r(C)p.r(A)p.r(A)p.r(C)p.r(U)p.r(U)p.r(G)p.d(T)p.d(T)}|RNA2{r(C)p.r(A)p.r(A)p.r(G)p.r(U)p.r(U)p.r(G)p.r(G)p.r(C)p.r(A)p.r(A)p.r(U)p.r(G)p.r(G)p.r(U)p.r(G)p.r(G)p.r(U)p.r(U)p.d(C)p.d(T)}$$$RNA1{StrandType:ss}|RNA2{StrandType:as}$
The normalised inhibition (eCFP-eYFP dual reporter) of the first is higher: 58.5% for the first, 34.2% for the second.
